Results reported in ChEMBL document CHEMBL1133871, “4-Aminopiperidine ureas as potent selective agonists of the human beta(3)-adrenergic receptor” (Bioorg Med Chem Lett, 2001).
The source made the active and inactive calls. The calls are words filed in the database; no cut-off is given here.

What was measured:
Adrenergic receptor beta [1] = target: T1, Adrenergic receptor beta (Homo sapiens, UniProt P08588+P07550+P13945); test: In vitro intrinsic activity is given as percentage of maximal stimulation relative to isoproterenol; Not active; type: functional
[2] = target: Beta-1 adrenergic receptor (Homo sapiens, UniProt P08588); test: In vitro agonistic activity assessed by measurement of cAMP accumulation level in CHO cells expressing human beta1-AR receptor; type: functional, cell-based
Sequence of Beta-1 adrenergic receptor (P08588 whole entry): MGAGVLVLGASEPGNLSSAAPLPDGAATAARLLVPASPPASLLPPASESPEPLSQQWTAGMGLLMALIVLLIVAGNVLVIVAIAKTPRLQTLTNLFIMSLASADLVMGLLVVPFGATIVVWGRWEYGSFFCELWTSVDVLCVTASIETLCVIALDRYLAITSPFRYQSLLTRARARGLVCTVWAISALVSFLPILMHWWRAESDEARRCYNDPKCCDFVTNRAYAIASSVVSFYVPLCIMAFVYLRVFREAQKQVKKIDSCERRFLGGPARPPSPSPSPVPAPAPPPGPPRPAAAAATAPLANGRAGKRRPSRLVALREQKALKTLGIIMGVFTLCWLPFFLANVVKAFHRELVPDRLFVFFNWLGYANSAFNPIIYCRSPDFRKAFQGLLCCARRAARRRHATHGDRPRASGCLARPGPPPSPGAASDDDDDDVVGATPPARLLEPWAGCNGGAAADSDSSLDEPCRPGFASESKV

[3] = target: T2, Beta-3 adrenergic receptor (Homo sapiens, UniProt P13945); test: […] of cAMP accumulation level in CHO cells expressing human beta3-AR receptor at 10 uM concentration; type: functional, cell-based
Target sequence in this assay (P13945 whole entry, looked up): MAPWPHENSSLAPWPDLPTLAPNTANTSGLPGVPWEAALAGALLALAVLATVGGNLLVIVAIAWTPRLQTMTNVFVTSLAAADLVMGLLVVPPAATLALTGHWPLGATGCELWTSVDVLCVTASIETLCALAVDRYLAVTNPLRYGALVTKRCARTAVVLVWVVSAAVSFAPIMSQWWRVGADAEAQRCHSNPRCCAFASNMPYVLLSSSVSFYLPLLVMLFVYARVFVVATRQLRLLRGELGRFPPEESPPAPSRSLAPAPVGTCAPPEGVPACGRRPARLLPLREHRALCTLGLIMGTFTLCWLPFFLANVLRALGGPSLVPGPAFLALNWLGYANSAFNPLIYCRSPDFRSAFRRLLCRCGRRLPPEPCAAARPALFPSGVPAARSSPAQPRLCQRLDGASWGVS

Adrenergic receptor beta [4] = target: T1, Adrenergic receptor beta; test: In vitro agonistic activity against cAMP accumulation level in CHO cells expressing human beta-AR receptor; type: functional, cell-based
[5] = target: T2, Beta-3 adrenergic receptor; test: In vitro agonistic activity assessed by measurement of cAMP accumulation level in CHO cells expressing human beta3-AR receptor; type: functional, cell-based
Target sequence in this assay (P13945 whole entry): as the sequence (P13945 whole entry, looked up) above

[6] = target: T2, Beta-3 adrenergic receptor; test: In vitro agonistic activity assessed by measurement of cAMP accumulation level in CHO cells expressing human beta3-AR receptor; In active; type: functional, cell-based
Target sequence in this assay (P13945 whole entry): as the sequence (P13945 whole entry, looked up) above

[7] = target: T2, Beta-3 adrenergic receptor; test: In vitro intrinsic activity is given as percentage of maximal stimulation relative to isoproterenol; In active; type: functional
Target sequence in this assay (P13945 whole entry): as the sequence (P13945 whole entry, looked up) above

| EC50 [2] [nM] | Structure (SMILES) | also measured |
| --- | --- | --- |
| 750 | O=C(NCc1c(F)cccc1F)N1CCC(Nc2ccc(CCNC[C@H](O)COc3ccc(O)cc3)cc2)CC1 | Intrinsic activity (Adrenergic receptor beta [1]): inactive |
| 254 | O=C(NCc1ccc(Cl)cc1Cl)N1CCC(Nc2ccc(CCNC[C@H](O)COc3ccc(O)cc3)cc2)CC1 | Intrinsic activity (Adrenergic receptor beta [1]): inactive |
| 943 | CC(C)NC(=O)N1CCC(Nc2ccc(CCNC[C@H](O)COc3ccc(O)cc3)cc2)CC1 | – |
| – | CCCCCCCCNC(=O)N1CCC(Nc2ccc(CCNC[C@H](O)c3ccc(O)c(C(N)=O)c3)cc2)CC1 | Intrinsic activity [3]: 42% |
| 423 | CS(=O)(=O)Nc1cc(OC[C@@H](O)CNCCc2ccc(NC3CCN(C(=O)NCc4cc(F)ccc4F)CC3)cc2)ccc1O | – |
| 88 | CCCCCCCCNC(=O)N1CCC(Nc2ccc(CCNC[C@H](O)COc3ccc(O)c4c3CCC(=O)N4)cc2)CC1 | – |
| 511 | NC(=O)N1CCC(Nc2ccc(CCNC[C@H](O)COc3ccc(O)cc3)cc2)CC1 | – |
| 260 | O=C(NCc1ccccc1F)N1CCC(Nc2ccc(CCNC[C@H](O)COc3ccc(O)cc3)cc2)CC1 | Intrinsic activity (Adrenergic receptor beta [1]): inactive |
| 2640 | CS(=O)(=O)Nc1cc([C@@H](O)CNCCc2ccc(NC3CCN(C(=O)NCc4cc(F)ccc4F)CC3)cc2)ccc1O | EC50 (Adrenergic receptor beta [4]): 10 nM |
| 610 | CCCCCCCCNC(=O)N1CCC(Nc2ccc(CCNC[C@H](O)COc3ccc(O)cc3)cc2)CC1 | EC50 [5]: 8 nM |
| 350 | CNC(=O)N1CCC(Nc2ccc(CCNC[C@H](O)COc3ccc(O)cc3)cc2)CC1 | – |
| 460 | O=C(NCc1ccc(F)cc1F)N1CCC(Nc2ccc(CCNC[C@H](O)COc3ccc(O)cc3)cc2)CC1 | Intrinsic activity (Adrenergic receptor beta [1]): inactive |
| – | CCCCCCCCNC(=O)N1CCC(Nc2ccc(CCNC[C@H](O)COc3cccc4[nH]c(O)nc34)cc2)CC1 | EC50 [6]: Not Active; EC50 [7]: Not Active |
| – | CCCCCCCCNC(=O)N1CCC(Nc2ccc(CCNC[C@H](O)COc3ccc(F)cc3)cc2)CC1 | inhibition [3]: 37% |
| 522 | O=C(NCc1cc(F)ccc1F)N1CCC(Nc2ccc(CCNC[C@H](O)COc3ccc(O)cc3)cc2)CC1 | Intrinsic activity (Adrenergic receptor beta [1]): inactive |

| Structure (SMILES) | EC50 [2] [nM] | also measured |
| --- | --- | --- |
| CCN(CC)C(=O)N1CCC(Nc2ccc(CCNC[C@H](O)COc3ccc(O)cc3)cc2)CC1 | 164 | – |
| O=C(NCCCC1CCCC1)N1CCC(Nc2ccc(CCNC[C@H](O)COc3ccc(O)cc3)cc2)CC1 | 187 | – |
| O=C(NC1CCCCC1)N1CCC(Nc2ccc(CCNC[C@H](O)COc3ccc(O)cc3)cc2)CC1 | 85 | – |
| O=C(NCc1ccc(F)cc1)N1CCC(Nc2ccc(CCNC[C@H](O)COc3ccc(O)cc3)cc2)CC1 | 109 | EC50 [5]: 41 nM |
